Activity calls are given as the source filed them.
Tests used:
Vero = experiment: host cell cytotoxicity of antiviral hits, dose response, cytotoxicity control for West Nile virus antiviral project, secondary assay (AID 1650); format: functional; conditions: Chlorocebus sabaeus
cells = format: functional, cell-based
[1] = target: T1, Carboxy-terminal domain RNA polymerase II polypeptide A small phosphatase 1 (Homo sapiens, UniProt Q9GZU7); experiment: inhibitors of CTDSP1, concentration-response testing, biochemical assay, absorbance-based, actives from ultra-high-throughput screening (AID 540297); format: functional
T1 sequence (Q9GZU7 whole entry): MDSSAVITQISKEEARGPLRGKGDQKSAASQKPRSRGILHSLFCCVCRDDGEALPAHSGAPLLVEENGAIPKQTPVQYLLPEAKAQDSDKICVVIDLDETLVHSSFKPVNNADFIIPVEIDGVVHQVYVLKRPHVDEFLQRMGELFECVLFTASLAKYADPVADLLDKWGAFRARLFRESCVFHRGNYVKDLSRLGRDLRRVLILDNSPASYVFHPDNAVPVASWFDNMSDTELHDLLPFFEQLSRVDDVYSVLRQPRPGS

[2] = target: T2, Short transient receptor potential channel 4 (Mus musculus, UniProt Q9QUQ5); experiment: mouse TRPC4 channel activators, dose response, cell-based, HEK293 TRPC4/mu-opioid, Fluo-4 calcium (AID 434937); format: functional
T2 sequence (Q9QUQ5 whole entry): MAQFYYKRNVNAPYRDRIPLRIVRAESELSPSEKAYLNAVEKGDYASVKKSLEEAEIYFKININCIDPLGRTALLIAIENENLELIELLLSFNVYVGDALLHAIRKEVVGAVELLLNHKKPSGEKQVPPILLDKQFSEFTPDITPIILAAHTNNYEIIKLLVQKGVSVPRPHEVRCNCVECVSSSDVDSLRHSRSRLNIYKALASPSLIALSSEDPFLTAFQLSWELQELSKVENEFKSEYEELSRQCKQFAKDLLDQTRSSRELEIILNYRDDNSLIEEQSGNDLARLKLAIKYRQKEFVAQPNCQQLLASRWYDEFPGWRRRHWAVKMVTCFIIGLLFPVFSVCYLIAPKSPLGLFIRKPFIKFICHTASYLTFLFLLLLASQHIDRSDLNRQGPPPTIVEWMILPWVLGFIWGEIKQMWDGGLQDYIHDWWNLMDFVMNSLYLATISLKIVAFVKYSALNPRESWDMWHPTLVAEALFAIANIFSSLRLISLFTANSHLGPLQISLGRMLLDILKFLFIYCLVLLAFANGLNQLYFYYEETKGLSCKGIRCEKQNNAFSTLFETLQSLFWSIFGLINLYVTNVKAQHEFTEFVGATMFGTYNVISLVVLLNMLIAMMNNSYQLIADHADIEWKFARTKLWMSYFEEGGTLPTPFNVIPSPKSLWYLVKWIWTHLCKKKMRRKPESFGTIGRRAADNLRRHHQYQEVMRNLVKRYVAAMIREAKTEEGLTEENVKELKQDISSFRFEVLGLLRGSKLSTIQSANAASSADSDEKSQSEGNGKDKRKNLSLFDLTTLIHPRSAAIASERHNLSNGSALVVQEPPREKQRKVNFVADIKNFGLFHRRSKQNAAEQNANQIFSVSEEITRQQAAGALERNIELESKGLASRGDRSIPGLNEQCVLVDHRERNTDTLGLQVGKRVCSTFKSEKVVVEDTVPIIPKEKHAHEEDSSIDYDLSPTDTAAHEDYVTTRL

Cytochrome P450 2C9 = Cytochrome P450 2C9 (Homo sapiens, UniProt P11712)
Cytochrome P450 2C9, sequence (P11712 whole entry): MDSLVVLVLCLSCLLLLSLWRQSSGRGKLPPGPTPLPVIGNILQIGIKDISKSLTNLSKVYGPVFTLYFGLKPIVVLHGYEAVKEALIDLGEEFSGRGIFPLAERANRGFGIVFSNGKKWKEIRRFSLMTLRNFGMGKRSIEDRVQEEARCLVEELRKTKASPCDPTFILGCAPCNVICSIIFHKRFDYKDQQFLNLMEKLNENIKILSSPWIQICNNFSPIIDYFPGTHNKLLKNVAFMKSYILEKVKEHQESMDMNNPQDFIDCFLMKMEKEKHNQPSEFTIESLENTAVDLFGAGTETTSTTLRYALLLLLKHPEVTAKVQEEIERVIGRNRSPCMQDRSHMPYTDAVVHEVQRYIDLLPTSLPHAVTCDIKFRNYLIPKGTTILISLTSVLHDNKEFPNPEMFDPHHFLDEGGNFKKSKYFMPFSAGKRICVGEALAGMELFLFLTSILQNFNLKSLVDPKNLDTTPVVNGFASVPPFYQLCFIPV

[3] = target: T3, Corticotropin-releasing factor receptor 2/Corticotropin-releasing factor-binding protein (Homo sapiens, UniProt P24387+Q13324); experiment: Dose Response confirmation of uHTS hits for small molecule antagonists of the CRF-binding protein and CRF-R2 receptor complex.; format: functional; conditions: read-out: IC50_Mean
T3 sequence (Q13324 whole entry): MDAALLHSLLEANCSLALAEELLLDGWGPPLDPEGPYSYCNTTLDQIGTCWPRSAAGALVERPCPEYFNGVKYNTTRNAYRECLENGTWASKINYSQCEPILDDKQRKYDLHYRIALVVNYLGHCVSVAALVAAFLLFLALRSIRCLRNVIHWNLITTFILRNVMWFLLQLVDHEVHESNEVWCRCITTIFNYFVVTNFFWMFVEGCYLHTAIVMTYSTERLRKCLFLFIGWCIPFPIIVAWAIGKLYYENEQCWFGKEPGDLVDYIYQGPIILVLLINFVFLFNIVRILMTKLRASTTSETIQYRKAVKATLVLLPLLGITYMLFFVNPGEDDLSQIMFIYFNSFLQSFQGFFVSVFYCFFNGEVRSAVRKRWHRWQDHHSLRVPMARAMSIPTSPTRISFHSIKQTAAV
T3 sequence (P24387 whole entry): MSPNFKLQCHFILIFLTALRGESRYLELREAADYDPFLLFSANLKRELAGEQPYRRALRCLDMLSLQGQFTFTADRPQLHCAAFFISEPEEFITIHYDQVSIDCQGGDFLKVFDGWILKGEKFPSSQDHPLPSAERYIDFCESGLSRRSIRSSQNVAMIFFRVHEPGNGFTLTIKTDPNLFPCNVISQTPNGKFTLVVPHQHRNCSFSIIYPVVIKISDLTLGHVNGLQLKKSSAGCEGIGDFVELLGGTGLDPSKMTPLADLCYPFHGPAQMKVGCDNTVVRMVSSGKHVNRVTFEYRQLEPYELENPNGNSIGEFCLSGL

[4] = target: T3, Corticotropin-releasing factor receptor 2/Corticotropin-releasing factor-binding protein; experiment: activators of CRF receptor 2 with binding protein – uHTS hits, confirmation (AID 602473); format: functional; conditions: read-out: EC50_Mean
[5] = CRF-BP/CRF-R2 complex antagonists, dose response, cell-based, uHTS hits, 384-well (AID 651639); format: functional, Homo sapiens; conditions: read-out: IC50_Mean
[6] = P. falciparum Dd2 growth inhibitors, dose response, SYBR Green, cherry-picked samples (AID 1159567); format: functional, cell-based
[7] = A cytotoxicity screen of small molecule inhibitors of the PhoP region in Salmonella typhi identified in the primary screen. [Related pubchem assays: 1850, 1864, 1985 ]; format: functional
Coagulation factor XII = target: T4, Coagulation factor XII (Homo sapiens, UniProt P00748); format: functional;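 further: activated factor XIIa alpha cleaving a fluorogenic AMC peptide substrate; inhibitor potency from loss of enzyme activity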
T4 sequence (P00748 whole entry): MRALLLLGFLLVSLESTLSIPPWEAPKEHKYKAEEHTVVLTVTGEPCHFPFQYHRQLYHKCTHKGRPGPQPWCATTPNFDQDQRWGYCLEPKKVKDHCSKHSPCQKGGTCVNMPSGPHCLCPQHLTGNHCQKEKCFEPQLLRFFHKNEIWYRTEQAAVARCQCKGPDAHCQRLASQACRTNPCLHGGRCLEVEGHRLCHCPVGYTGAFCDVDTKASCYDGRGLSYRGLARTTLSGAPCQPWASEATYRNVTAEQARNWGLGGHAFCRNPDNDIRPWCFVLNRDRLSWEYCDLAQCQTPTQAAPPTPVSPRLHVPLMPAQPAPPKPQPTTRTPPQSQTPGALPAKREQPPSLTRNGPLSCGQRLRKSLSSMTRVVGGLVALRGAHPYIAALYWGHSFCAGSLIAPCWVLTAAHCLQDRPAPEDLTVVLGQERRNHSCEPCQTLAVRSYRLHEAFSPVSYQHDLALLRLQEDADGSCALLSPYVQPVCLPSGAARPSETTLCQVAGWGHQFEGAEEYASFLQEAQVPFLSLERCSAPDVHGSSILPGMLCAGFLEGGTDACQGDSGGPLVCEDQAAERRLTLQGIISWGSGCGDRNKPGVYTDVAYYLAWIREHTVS

[8] = cytotoxicity in HEK-293T cells, dose response, cytotoxicity control for TCR NF-kB inhibitor project, luminescence, T-cell screen hits (AID 489026); format: functional, cell-based;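 further: cells exposed to compound about 14 hours before the viability readout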

Compound: O=S(=O)(CC(CN1CCCCC1)N1CCCCC1)c1ccccc1 (stereo not drawn)
- CC50 (Vero): 14.4 µM (active)

Compound: CC(C)c1ccc(N(C(=O)c2snc(C(N)=O)c2N)C(C(=O)NC2CCCC2)c2ccncc2)cc1 (stereo not drawn)
- EC50 (cells): > 350 µM (not active)

Compound: COc1ccc2c3c1OC1C(O)C=CC4C(C2)[N+](C)(C)CCC341 (stereo not drawn)
- IC50 [1]: 7 µM (active)

Compound: COc1ccc(CCN(C)CCC(=O)Nc2c(C)cc(C)cc2C)cc1OC
- EC50 [2]: 4.73 µM (active)

Compound: Clc1cnc(Oc2ccc(Oc3ncc(Cl)cc3Cl)cc2)c(Cl)c1
- AC50 (Cytochrome P450 2C9): inconclusive
- IC50 [3]: < 0.368 µM (active)
- EC50 [4]: > 53 µM (inactive)
- IC50 [5]: 18 µM (active)

Compound: CCOC(=O)C1(Cc2cccc(F)c2)CCN(Cc2cnn(CC)c2C)CC1
- EC50 [2]: 0.211 µM (active)

Compound: COC(=O)c1cc(OC)c(OC)cc1NC(=O)c1c(-c2ccccc2Cl)noc1C
- IC50 [3]: < 0.368 µM (active)
- EC50 [4]: > 53 µM (inactive)
- IC50 [5]: > 20 µM (inactive)

Compound: C[C@H](CO)N1C[C@H](C)[C@H](CN(C)C(=O)Nc2ccc(-c3ccccc3)cc2)OCc2ccccc2-c2c(n(C)c3ccccc23)C1=O
- AC50 [6]: 4.77 µM (active)

Compound: COc1cccc(NC2=NC(N)=NC3(CCCCC3)N2)c1
- EC50 [7]: > 50 µM (active)

Compound: Cc1nc2ccccc2n1CC(O)COC1CCCCC1 (stereo not drawn)
- IC50 [3]: 41.8 µM (active)
- EC50 [4]: > 53 µM (inactive)
- IC50 [5]: 8.02 µM (active)

Compound: Cc1ccc(C)c(NC(=O)CN(C)C(=O)CCN2C(=O)c3ccccc3C2=O)c1
- IC50 (Coagulation factor XII): > 50 µM (inactive)

Compound: CCC(=O)N1CCC2(CC1)CN(Cc1cc(F)ccc1F)[C@@H](CO)c1[nH]c3cc(OC)ccc3c12
- AC50 [6]: 4.19 µM (active)

Compound: O=[N+]([O-])c1ccc2nc(S)sc2c1
- IC50 [3]: 7.04 µM (active)
- EC50 [4]: 27.1 µM (active)
- IC50 [5]: > 20 µM (inactive)

Compound: CSC1=NC(c2ccc(C)cc2)=NC(C(Cl)(Cl)Cl)N1 (stereo not drawn)
- IC50 [8]: > 80 µM (inactive)

Source: ChEMBL document CHEMBL1201862, “PubChem BioAssay data set” (2004)
